The first assay concerns the target PRMT5-MEP50 (Homo sapiens, UniProt O14744). The assay can be described thus: PRMT5 assay (3H-SAM flashplate). The settings on record: Table 4; PRMT5 biochemical assay. In a few lines: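 PRMT5-MEP50 at 2.5 nM, preincubated 5 min with compound in 20 mM Tris-HCl pH 8.0, 1 mM DTT, 0.01% Tween at ambient temperature. Biotinylated acetylated histone H4 peptide (100 nM) and 3H-SAM (250 nM) react 60 min, quenched with 15 μM cold SAM; methylation captured on streptavidin flashplates and scintillation-counted.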
Sequence of METTL3/METTL14 (Q86U44 whole entry, species assumed): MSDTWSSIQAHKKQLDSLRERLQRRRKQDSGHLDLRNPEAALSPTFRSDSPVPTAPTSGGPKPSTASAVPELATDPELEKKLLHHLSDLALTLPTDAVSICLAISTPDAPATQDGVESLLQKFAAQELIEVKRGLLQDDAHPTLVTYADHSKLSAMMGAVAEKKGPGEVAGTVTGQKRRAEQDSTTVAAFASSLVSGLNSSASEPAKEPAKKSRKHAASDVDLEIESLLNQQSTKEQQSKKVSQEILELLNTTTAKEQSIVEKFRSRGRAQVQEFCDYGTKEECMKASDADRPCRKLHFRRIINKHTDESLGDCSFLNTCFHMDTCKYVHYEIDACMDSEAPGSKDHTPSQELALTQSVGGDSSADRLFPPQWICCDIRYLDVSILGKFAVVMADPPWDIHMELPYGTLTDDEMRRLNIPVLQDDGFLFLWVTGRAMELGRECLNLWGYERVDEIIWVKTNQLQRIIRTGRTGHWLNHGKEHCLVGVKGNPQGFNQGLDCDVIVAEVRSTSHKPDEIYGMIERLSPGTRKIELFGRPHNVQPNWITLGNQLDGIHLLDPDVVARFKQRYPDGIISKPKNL
Sequence of METTL3/METTL14 (Q9HCE5 whole entry partner, species assumed): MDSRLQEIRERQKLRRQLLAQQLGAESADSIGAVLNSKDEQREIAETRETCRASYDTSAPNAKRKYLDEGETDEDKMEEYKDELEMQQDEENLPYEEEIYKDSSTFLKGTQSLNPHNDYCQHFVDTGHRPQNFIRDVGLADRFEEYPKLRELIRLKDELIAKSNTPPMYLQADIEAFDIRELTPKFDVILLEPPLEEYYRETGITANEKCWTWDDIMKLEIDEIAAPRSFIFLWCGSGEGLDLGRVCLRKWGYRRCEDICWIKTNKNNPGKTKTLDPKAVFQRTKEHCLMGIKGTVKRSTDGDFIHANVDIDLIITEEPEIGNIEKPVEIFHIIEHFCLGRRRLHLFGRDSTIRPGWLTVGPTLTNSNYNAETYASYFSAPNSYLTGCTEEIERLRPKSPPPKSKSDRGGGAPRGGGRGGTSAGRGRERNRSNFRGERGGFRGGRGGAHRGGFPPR
Sequence of PRMT5-MEP50 (O14744 whole entry): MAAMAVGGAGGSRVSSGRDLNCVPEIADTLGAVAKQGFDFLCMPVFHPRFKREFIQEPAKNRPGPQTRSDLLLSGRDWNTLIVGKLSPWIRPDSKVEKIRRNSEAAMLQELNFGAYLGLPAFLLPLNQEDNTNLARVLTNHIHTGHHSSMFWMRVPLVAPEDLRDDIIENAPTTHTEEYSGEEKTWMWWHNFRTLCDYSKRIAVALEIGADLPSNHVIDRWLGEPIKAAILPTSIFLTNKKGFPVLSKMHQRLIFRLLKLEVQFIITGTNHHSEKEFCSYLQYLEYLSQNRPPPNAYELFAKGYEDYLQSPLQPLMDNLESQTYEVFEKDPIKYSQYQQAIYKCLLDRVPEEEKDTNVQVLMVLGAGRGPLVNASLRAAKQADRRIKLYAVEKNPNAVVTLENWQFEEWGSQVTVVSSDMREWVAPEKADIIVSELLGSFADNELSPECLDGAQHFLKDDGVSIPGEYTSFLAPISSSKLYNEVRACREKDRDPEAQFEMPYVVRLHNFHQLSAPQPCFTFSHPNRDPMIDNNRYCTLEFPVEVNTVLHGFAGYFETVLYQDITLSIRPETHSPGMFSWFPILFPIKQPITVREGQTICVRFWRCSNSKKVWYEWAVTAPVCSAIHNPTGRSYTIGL
Sequence of PRMT5-MEP50 (Q9BQA1 whole entry partner): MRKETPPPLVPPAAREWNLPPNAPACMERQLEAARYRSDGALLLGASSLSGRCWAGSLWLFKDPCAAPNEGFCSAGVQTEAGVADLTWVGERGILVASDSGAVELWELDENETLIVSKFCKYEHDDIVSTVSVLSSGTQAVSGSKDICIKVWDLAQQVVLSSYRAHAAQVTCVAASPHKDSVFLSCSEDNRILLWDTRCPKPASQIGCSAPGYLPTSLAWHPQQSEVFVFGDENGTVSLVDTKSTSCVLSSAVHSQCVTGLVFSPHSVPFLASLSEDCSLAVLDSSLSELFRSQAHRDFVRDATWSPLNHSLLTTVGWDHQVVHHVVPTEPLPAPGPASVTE
In turn, `Cn1ccc(-c2cn([C@@H]3O[C@H](C(=O)NCCc4ccccc4)[C@@H](O)[C@H]3O)c3ncnc(N)c23)n1` [Compound I-192] displayed an IC50 of 0.1 to 1 µM.
The same measure, in the same setting: the figure for `CNc1cccc(CCNC(=O)[C@H]2O[C@@H](n3cc(-c4ccn(C)n4)c4c(N)ncnc43)[C@H](O)[C@@H]2O)n1` [Compound I-193] is no less than 1 µM; for `C[C@@H](NC(=O)[C@H]1O[C@@H](n2cc(-c3ccn(C)n3)c3c(N)ncnc32)[C@H](O)[C@@H]1O)C1CCNCC1` [Compound I-196] it is 0.1 to 1 µM.
On the same count and under the same terms, the figure for `Cn1ccc(-c2cn([C@@H]3O[C@H](C(=O)N[C@H]4CCc5nc(N)sc5C4)[C@@H](O)[C@H]3O)c3ncnc(N)c23)n1` [Compound I-197] is no less than 1 µM; for `Cn1ccc(-c2cn([C@@H]3O[C@H](C(=O)NCC4(O)CCNCC4)[C@@H](O)[C@H]3O)c3ncnc(N)c23)n1` [Compound I-198] it is 0.01 to 0.1 µM.

The next assay concerns the target METTL3/METTL14 (Homo sapiens, UniProt Q86U44). The assay can be described thus: METTL3-14 standard enzyme assay (3H-SAM flashplate). The settings on record: Table 4; METTL3 biochemical assay. In a few lines: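 METTL3/METTL14 (2.5 nM) preincubated 5 min, then reacted with 3′-biotinylated RNA UCUGGACUAAA (100 nM) and 3H-SAM (100 nM) for 30 min at ambient temperature in 20 mM HEPES pH 7.5, 50 mM KCl, 250 μM MgCl2, 1 mM DTT. Quenched with 15 μM cold SAM; product captured on streptavidin flashplates, scintillation counted.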
`Cn1ccc(-c2cn([C@@H]3O[C@H](C(=O)NCCc4ccccc4)[C@@H](O)[C@H]3O)c3ncnc(N)c23)n1` [Compound I-192] yielded an IC50 of 0.1 to 1 µM.
Still for that read-out and setting: the figure for `CNc1cccc(CCNC(=O)[C@H]2O[C@@H](n3cc(-c4ccn(C)n4)c4c(N)ncnc43)[C@H](O)[C@@H]2O)n1` [Compound I-193] is 0.1 to 1 µM; for `C[C@@H](NC(=O)[C@H]1O[C@@H](n2cc(-c3ccn(C)n3)c3c(N)ncnc32)[C@H](O)[C@@H]1O)C1CCNCC1` [Compound I-196] it is no less than 1 µM; for `Cn1ccc(-c2cn([C@@H]3O[C@H](C(=O)N[C@H]4CCc5nc(N)sc5C4)[C@@H](O)[C@H]3O)c3ncnc(N)c23)n1` [Compound I-197] it is 0.1 to 1 µM.
On the same count and under the same terms, in the case of `Cn1ccc(-c2cn([C@@H]3O[C@H](C(=O)NCC4(O)CCNCC4)[C@@H](O)[C@H]3O)c3ncnc(N)c23)n1` [Compound I-198] it was 0.1 to 1 µM.

The target in a further assay is T1, FLT3 (Homo sapiens, UniProt P36888).
T1 sequence (P36888 27-993): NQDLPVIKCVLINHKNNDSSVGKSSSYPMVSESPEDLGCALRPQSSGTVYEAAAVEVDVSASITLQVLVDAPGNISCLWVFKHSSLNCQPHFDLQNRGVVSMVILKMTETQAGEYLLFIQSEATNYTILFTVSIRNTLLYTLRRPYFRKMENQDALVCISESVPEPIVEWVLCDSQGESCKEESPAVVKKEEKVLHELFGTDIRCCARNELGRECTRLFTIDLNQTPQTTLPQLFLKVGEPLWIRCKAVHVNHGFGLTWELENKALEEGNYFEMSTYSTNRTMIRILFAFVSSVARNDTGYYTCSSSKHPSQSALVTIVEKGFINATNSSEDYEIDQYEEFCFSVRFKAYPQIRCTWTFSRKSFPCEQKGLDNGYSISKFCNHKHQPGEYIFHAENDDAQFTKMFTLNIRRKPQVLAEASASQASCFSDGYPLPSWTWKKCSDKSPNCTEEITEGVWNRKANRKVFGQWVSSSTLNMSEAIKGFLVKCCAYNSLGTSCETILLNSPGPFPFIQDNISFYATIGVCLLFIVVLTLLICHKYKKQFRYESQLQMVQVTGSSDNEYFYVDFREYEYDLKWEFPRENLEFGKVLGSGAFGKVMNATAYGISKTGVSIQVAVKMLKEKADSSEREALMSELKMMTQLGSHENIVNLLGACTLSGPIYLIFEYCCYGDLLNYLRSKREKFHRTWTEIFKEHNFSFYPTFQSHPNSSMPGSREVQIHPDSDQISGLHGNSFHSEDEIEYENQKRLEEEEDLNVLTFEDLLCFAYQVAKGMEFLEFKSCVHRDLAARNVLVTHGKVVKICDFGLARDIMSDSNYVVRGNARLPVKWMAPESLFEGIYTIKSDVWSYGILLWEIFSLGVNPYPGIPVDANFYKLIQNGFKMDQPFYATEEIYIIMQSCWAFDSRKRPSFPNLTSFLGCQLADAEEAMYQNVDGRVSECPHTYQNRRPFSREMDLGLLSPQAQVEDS
The assay can be described thus: FLT3 Caliper assay. Format: biochemical. The settings on record: Table 4; read-out: FLT3 Calipher assay IC50. How it is done: (§1) FLT3/FLT3-ITD Caliper Assays
(§2) Assays were performed in a 20 μl-volume in 384-well polypropylene microplates (Perkin Elmer Proxiplate, cat. No. 6059480) at ambient temperature. Optimized 1× assay buffer was 50 mM Hepes pH 7.5, 2 mM DTT, 0.01% Tween, 0.01% BSA, 10 mM MgCl2. For compound screening FLT3 (final concentration, f.c.=0.9 nM) or FLT3-ITD (f.c.=7 nM) was added using a Multidrop Combi (ThermoFisher Scientific, Waltham, MA) and preincubated for 10 min. Reactions were started by adding fluorescein-peptide (sequence 5-FAM-EAIYAAPFAKKK-CONH2) (f.c.=300 μM) and ATP (FLT3 f.c.=97 μM FLT3-ITD f.c.=146 μM) substrates. Reactions proceeded for 60 minutes. The reactions were stopped with LabChip ProfilerPro Separation Buffer containing EDTA (f.c.=20 mM). The plates were read on a Caliper microfluidics reader (PerkinElmer, Waltham, MA).
As to `Cn1ccc(-c2cn([C@@H]3O[C@H](C(=O)NCCc4ccccc4)[C@@H](O)[C@H]3O)c3ncnc(N)c23)n1` [Compound I-192], the half-inhibitory concentration (IC50) is no less than 1 µM.
For the compound `CNc1cccc(CCNC(=O)[C@H]2O[C@@H](n3cc(-c4ccn(C)n4)c4c(N)ncnc43)[C@H](O)[C@@H]2O)n1` [Compound I-193], the IC50 is no less than 1 µM.
`C[C@@H](NC(=O)[C@H]1O[C@@H](n2cc(-c3ccn(C)n3)c3c(N)ncnc32)[C@H](O)[C@@H]1O)C1CCNCC1` [Compound I-196]: the half-maximal inhibitory concentration (IC50) is no less than 1 µM.
Consider `Cn1ccc(-c2cn([C@@H]3O[C@H](C(=O)N[C@H]4CCc5nc(N)sc5C4)[C@@H](O)[C@H]3O)c3ncnc(N)c23)n1` [Compound I-197], for which the IC50 was no less than 1 µM.
On the same count and under the same terms, in the case of `Cn1ccc(-c2cn([C@@H]3O[C@H](C(=O)NCC4(O)CCNCC4)[C@@H](O)[C@H]3O)c3ncnc(N)c23)n1` [Compound I-198] it was no less than 1 µM.

The target of a further assay is T2, FLT3-ITD (Homo sapiens, UniProt P36888).
T2 sequence (P36888 1-993): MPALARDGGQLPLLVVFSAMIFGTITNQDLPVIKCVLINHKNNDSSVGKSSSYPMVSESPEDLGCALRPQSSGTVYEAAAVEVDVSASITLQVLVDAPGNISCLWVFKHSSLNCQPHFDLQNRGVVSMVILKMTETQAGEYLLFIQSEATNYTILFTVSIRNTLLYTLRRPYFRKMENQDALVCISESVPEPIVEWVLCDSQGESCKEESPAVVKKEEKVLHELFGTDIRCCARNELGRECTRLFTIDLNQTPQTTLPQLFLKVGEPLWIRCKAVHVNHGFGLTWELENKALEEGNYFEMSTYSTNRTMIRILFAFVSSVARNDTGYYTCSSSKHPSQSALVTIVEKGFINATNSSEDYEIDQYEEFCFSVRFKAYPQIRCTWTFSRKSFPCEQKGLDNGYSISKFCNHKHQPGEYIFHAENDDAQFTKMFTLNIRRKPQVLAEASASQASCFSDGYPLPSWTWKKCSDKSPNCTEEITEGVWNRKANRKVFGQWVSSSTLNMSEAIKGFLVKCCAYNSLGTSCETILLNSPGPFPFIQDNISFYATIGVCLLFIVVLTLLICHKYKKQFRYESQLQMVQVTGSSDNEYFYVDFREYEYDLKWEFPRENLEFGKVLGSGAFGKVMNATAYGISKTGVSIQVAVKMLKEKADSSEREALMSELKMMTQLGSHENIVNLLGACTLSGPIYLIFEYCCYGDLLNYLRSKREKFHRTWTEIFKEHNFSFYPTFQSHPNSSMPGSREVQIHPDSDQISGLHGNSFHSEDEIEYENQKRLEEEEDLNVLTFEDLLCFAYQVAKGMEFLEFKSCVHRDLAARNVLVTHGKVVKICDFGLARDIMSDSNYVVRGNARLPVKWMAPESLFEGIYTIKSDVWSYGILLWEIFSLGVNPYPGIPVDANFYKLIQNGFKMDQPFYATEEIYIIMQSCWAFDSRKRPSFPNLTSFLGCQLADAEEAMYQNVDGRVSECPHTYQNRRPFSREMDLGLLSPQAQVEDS
The assay is described as follows: FLT3-ITD Caliper assay. The settings on record: Table 4; read-out: FLT3-ITD Calipher assay IC50. Format: biochemical. As to the method: as §1, §2
Take `Cn1ccc(-c2cn([C@@H]3O[C@H](C(=O)NCCc4ccccc4)[C@@H](O)[C@H]3O)c3ncnc(N)c23)n1` [Compound I-192]: the IC50 was no less than 1 µM.
The same measure, in the same setting: the figure for `CNc1cccc(CCNC(=O)[C@H]2O[C@@H](n3cc(-c4ccn(C)n4)c4c(N)ncnc43)[C@H](O)[C@@H]2O)n1` [Compound I-193] is no less than 1 µM; for `C[C@@H](NC(=O)[C@H]1O[C@@H](n2cc(-c3ccn(C)n3)c3c(N)ncnc32)[C@H](O)[C@@H]1O)C1CCNCC1` [Compound I-196] it is no less than 1 µM.
On the same count and under the same terms, the figure for `Cn1ccc(-c2cn([C@@H]3O[C@H](C(=O)N[C@H]4CCc5nc(N)sc5C4)[C@@H](O)[C@H]3O)c3ncnc(N)c23)n1` [Compound I-197] is no less than 1 µM; for `Cn1ccc(-c2cn([C@@H]3O[C@H](C(=O)NCC4(O)CCNCC4)[C@@H](O)[C@H]3O)c3ncnc(N)c23)n1` [Compound I-198] it is no less than 1 µM.

(Values after patent US20240051985A1, “METTL3 MODULATORS” (ACCENT THERAPEUTICS, INC., priority 2020, published 2024).)
